Reference: patent US10238631B2, “Sesquiterpene derivatives and their use in inflammation or cancer treatment” (Academia Sinica, priority 2014, dated 2019)
pIC50: −log10 of the molar value. Like-named read-outs stand apart in the source and are kept apart here.

Tests used:
HTB-68 (NRAS mutation) = test: MTT cell viability assay, HTB-68 melanoma; assay type: cell-based, human; settings: Homo sapiens, 24 h
In short: (§1)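 Viability is determined colorimetrically with MTT after a 24 h to 72 h compound treatment. Vehicle wells containing 0.5% DMSO define 100% viability, and treated OD570 values are expressed relative to them.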

[1] = tested on: RAW264.7 (normal macrophage); test: MTT cell viability assay, RAW264.7 macrophages; assay type: cell-based, mouse; settings: Mus musculus, RAW264.7, 24 h
In short: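 RAW264.7 macrophages (2×10^5 cells/well) pretreated with compounds 1 h, then incubated 24 h with or without 100 ng/μL LPS. Viability by MTT colorimetric assay run in parallel with Griess nitrite measurement.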

[2] = tested on: NES-SA uterus cancer cell line; test: MTT cell viability assay, NES-SA; assay type: cell-based; settings: 24 h
Experimental: (§2) Normal or cancer cells (2×10^3 to 1×10^4 cells/well) were seeded in 96-well plate for overnight and treated with different compounds for 24 h to 72 h. Cells growth were determined by MTT-based colorimetric assays according to. Viability of the test cells treated with vehicle (0.5% DMSO) only was defined as 100% viable. Survival of cells after treatment with DETDs was calculated using the following formula: viable cell number (%)=OD570 (treated cell culture)/OD570 (vehicle control)×100.
(§3) Based on toxicity results of DET and DETDs on different breast cancer and melanoma cell lines, we selected DETD-6, -32, -35 and -39, under the consideration of structure activity relationship for evaluating their suppression effect against other cancer types of cell line with indicated tumor origin in Table 5. […] The cells were treated with compounds for 24 h and then subjected to MTT assays.

[3] = tested on: MCF-7 (ER+, Her2−) human breast cancer cells; test: MTT cell viability assay, MCF-7 cells; assay type: cell-based
In short: (§4)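 Viability is scored colorimetrically by MTT after cells, plated at 2×10^3 to 1×10^4 per well the night before, receive compounds for 24 h to 72 h; 0.5% DMSO-treated wells define 100%.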

[4] = tested on: MeWo (No NRAS or BRAF mutation); test: MTT cell viability assay, MeWo melanoma; assay type: cell-based, human; settings: Homo sapiens, MeWo, 24 h
In short: as §1

[5] = tested on: melanoma cell lines B16-F10, MeWo, A375, A2058, HTB-68; test: MTT cell viability assay, all melanoma cell lines; assay type: cell-based; settings: 24 h, read-out: IC50 values over all types of melanoma cell lines
Experimental: as §2
Several genes are involved in melanoma development and pathology; specifically, mutation in V-raf murine sarcoma viral oncogene homolog B1 (B-RAF) occurs approximately 50-60% and in neuroblastoma RAS viral oncogene homolog (N-RAS) occurs about 30% of malignant melanomas. A spectrum of wild-type or mutated melanoma cell lines including B16-F10, MeWo, A375, A2058, HTB-68, and melanocyte were used to study anti-melanoma cell proliferation activity of parental phytocompound DET and newly synthesized DETDs.

[6] = tested on: M10 normal mammary epithelial cells; test: MTT cell viability assay, M10 normal cells; assay type: cell-based, human; settings: 24 h
In short: as §4

[7] = tested on: A498 kidney cancer cell line; test: MTT cell viability assay, A498; assay type: cell-based; settings: Homo sapiens, 24 h
Experimental: as §2, §3

[8] = tested on: SK-N-MC neuroepithelioma line; test: MTT cell viability assay, SK-N-MC; assay type: cell-based; settings: Homo sapiens, 24 h
Experimental: as §2, §3

[9] = tested on: Melanocyte (Normal cells); test: MTT cell viability assay, normal melanocytes; assay type: cell-based, human; settings: Homo sapiens, Melanocyte, 24 h
In short: as §1

[10] = tested on: MDA-MB-231 (ER−, PR−, Her2−) human breast cancer cells; test: MTT cell viability assay, MDA-MB-231 cells; assay type: cell-based; settings: Homo sapiens
In short: as §4

[11] = tested on: TS/A (ER+, Her2−) murine mammary cancer cells; test: MTT cell viability assay, TS/A cells; assay type: cell-based; settings: Mus musculus
In short: as §4

[12] = tested on: PC6 lung cancer cell line; test: MTT cell viability assay, PC6; assay type: cell-based; settings: 24 h
Experimental: as §2, §3

[13] = tested on: U-87MG brain cancer cell line; test: MTT cell viability assay, U-87MG; assay type: cell-based; settings: Homo sapiens, 24 h
Experimental: as §2, §3

U937 lymphoma line = test: MTT cell viability assay, U937; assay type: cell-based; settings: Homo sapiens, U-937, 24 h
Experimental: as §2, §3

B16-F10 (NRAS mutation) = test: MTT cell viability assay, B16-F10 melanoma; assay type: cell-based; settings: Mus musculus, B16-F10, 24 h
In short: as §1

A2058 (BRAF mutation) = test: MTT cell viability assay, A2058 melanoma; assay type: cell-based, human; settings: Homo sapiens, A2058, 24 h
In short: as §1

[14] = tested on: KATO III stomach cancer cell line; test: MTT cell viability assay, KATO III; assay type: cell-based; settings: Homo sapiens, 24 h
Experimental: as §2, §3

[15] = tested on: LPS-induced nitric oxide (NO) production in RAW 264.7 cells; test: Nitric oxide production in LPS-stimulated macrophages (Griess); assay type: cell-based, mouse; settings: Mus musculus; LPS-stimulated RAW264.7, nitrite 24 h after LPS
In short: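 RAW 264.7 macrophages (2×10^5 cells/well) were pretreated with compound for 1 h and then stimulated with 100 ng/μL LPS for 24 h. NO was measured as nitrite in the medium by the Griess reaction. Viability was checked in parallel by MTT.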

[16] = tested on: HCT-116 colon cancer cell line; test: MTT cell viability assay, HCT-116; assay type: cell-based; settings: Homo sapiens, 24 h
Experimental: as §2, §3

A375 (BRAF mutation) = test: MTT cell viability assay, A375 melanoma; assay type: cell-based, human; settings: Homo sapiens, A-375, 24 h, 24 h, MTT; read-out: IC50 on cell viability, A375 (BRAF mutation)
In short: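 A375 cells were seeded at 2×10^3 to 1×10^4 per well overnight and then exposed to compounds for 24 h to 72 h. Viability was measured by MTT absorbance at OD570 relative to 0.5% DMSO vehicle (100%), and IC50 was derived from it. Combination with PLX4032 was scored by combination index.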

PC3 (Prostate) = test: MTT cell viability assay, PC3; assay type: cell-based; settings: 24 h
Experimental: as §2, §3

Structure (SMILES): C=C1C(=O)O[C@H]2CC3=C[C@@H](C/C(C)=C/[C@@H](OC(=O)/C=C/c4ccccc4)[C@H]12)OC3=O [DETD-6]
- pIC50 (HTB-68 (NRAS mutation)): 5.24
- pIC50 [1]: < 5.00
- pIC50 [2]: 6.38
- pIC50 ([3]; MCF7, 24 h, read-out: IC50 on cell viability, MCF-7 (ER+, Her2−)): 5.80
- pIC50 ([3]; MCF7, Table 5, 24 h, read-out: IC50 viability MCF-7 (Breast)): 5.32
- pIC50 [4]: 5.00
- pIC50 [5]: 5.00 to 5.80
- IC50 on cell viability, M10 (normal) [6]: some toxicity
- pIC50 ([6]; Homo sapiens, Epithelial cell): 5.31
- pIC50 [7]: 5.95
- pIC50 [8]: 6.49
- pIC50 [9]: < 5.00
- pIC50 ([10]; MDA-MB-231, 24 h, read-out: IC50 on cell viability, MDA-MB-231 (ER−, PR−, Her2−)): 5.38
- pIC50 ([10]; MDA-MB-231, Table 5, 24 h, read-out: IC50 viability MDA-MB-231 (Breast)): 5.40
- pIC50 ([11]; 24 h, read-out: IC50 on cell viability, TS/A (ER+, Her2−)): 5.80
- pIC50 ([11]; Table 5, 24 h, read-out: IC50 viability TS/A (mouse) (Breast)): 5.74
- pIC50 [12]: 6.77
- pIC50 [13]: 6.46
- pIC50 (U937 lymphoma line): 6.74
- pIC50 (B16-F10 (NRAS mutation); 24 h, read-out: IC50 on cell viability, B16-F10 (NRAS mutation)): 5.41
- pIC50 (B16-F10 (NRAS mutation); Table 5, 24 h, read-out: IC50 viability B16-F10 (mouse) (Skin)): 5.41
- pIC50 (A2058 (BRAF mutation)): 5.41
- pIC50 [14]: 6.38
- pIC50 [15]: 5.60
- pIC50 [16]: 6.96
- pIC50 (A375 (BRAF mutation)): 5.48
- pIC50 (PC3 (Prostate)): 5.35

Structure (SMILES): O=C(O)c1cc(/N=N/c2ccc(S(=O)(=O)Nc3ccccn3)cc2)ccc1O [sulfasalazine]
- cytotoxicity of blocker alone (MDA-MB-231 cells): did not show any cytotoxicity
